The results in this text go back to article PMC7669869, “AdipoR1/AdipoR2 dual agonist recovers nonalcoholic steatohepatitis and related fibrosis via endoplasmic reticulum-mitochondria axis” (Nature Communications, 2020).

Structures are written as SMILES. “And” between values parts separate entries of the source, which are not always exact repeats. Equal values may be shown once. Non-standard residues stand in square brackets, D forms with d. Residues, ends and D or L forms follow the SMILES beside them. Nva = CCC[C@H](N)C(=O)O

One assay concerns HFD induced NASH mice. The assay is described as follows: HFD mice: oral glucose tolerance test (OGTT). It is filed as in vivo, mouse. The following applies: JT003 500 μg kg−1, in words. How it is done:
Fasting blood glucose was measured using OneTouch UltraVue Blood Glucose Meter and test strips (Johnson&Johnson, USA) from tail nicks. After HFD fed for 14 weeks and JT003 treated for 2 weeks, oral glucose tolerance tests were performed on 8 h fasted mice. 0.5 g ml^−1 D-glucose solution (Sigma-Aldrich, USA) were oral injected to mice (2 g kg^−1 of bodyweight), blood glucose level was recorded at baseline, 15, 30, 60, 120 min

The target of the next assay is T1, AdipoR2 (Homo sapiens, UniProt Q86V24).
T1 construct: His; host or cells: HEK293
T1 sequence (Q86V24 1-386): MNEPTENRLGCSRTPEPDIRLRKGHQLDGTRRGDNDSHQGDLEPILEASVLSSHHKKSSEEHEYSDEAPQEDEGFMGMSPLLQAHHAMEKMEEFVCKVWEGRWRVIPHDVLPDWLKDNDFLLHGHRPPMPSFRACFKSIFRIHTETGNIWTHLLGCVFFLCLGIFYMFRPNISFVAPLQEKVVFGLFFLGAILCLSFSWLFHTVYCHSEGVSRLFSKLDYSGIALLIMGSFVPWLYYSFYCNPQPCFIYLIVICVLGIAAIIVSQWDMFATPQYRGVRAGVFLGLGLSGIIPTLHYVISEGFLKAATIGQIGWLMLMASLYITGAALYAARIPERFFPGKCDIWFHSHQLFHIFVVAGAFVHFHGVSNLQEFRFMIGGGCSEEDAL
Nature of the assay: Competition binding assay vs globular adiponectin (western blot), AdipoR2 overexpression cells. Particulars: JT003 4 h, then 50 μg ml−1 gAd155–161 4 h, in words. As to the method:
Different concentration of JT003 were incubated with AdipoR1 or AdipoR2 overexpression HEK293 cell line for 4 h. After that, 50 μg ml^−1 gAd155–161 were added for another 4 h incubation. The binding of gAd155–161 to the cells were measured via western blot assay.
(Immunoblotting shows a protein as a band on a membrane.)

Assay [1] relates to AdipoR1 and AdipoR2 in LX2 cells. Nature of the assay: RNA interference (AdipoR1/AdipoR2 siRNA) in LX2: PPARα, PPARγ mRNA and protein. It is filed as cell-based, human. Particulars: JT003 48 h, in words. As to the method:
(§1) AdipoR1 and AdipoR2 siRNA as well as mock siRNA were chemically synthesized (GenePharma, China) and transfected into 60–70% confluent HepG2 and LX2 cells using Lipofectamine 3000 (ThermoFisher Scientific, USA). Dilution of siRNA and Lipofectamine 3000 reagents as well as the transfection of cells were performed following the manufacturer’s protocol. For HepG2 cell model, 5E5 cells were plated in 6-well plates and transfected with 5 μL of 20 μM stock siRNA. At 48 h following transfection, the cells were processed for 0.25 mM PA and/or 200 μM JT003 treated for another 24 h. BSA was used as the negative control. […]
(§2) Liver total RNA was extracted by using Trizol reagent following the manufacture’s instruction (TransGen Biotech, China). The concentration of RNA was measured by Nanodrop 2000 (ThermoFisher Scientific, USA). cDNA was transcribed from 10ug total RNA with First Strand cDNA synthesis Super Mix (TransGen Biotech, China). […] Reference gene β-actin was used for data normalization. mRNA expression was analyzed with specific primers listed in Supplementary Table 2.
(§3) Total protein was isolated from cells or liver samples using RIPA lysis buffer (50.0 mM Tris-HCl (pH = 8.0), 150.0 mM NaCl, 0.02% NaN3, 0.1% SDS, 1% NP-40, 0.5% deoxysodium cholate, 1 mM EDTA, […]). The protein concentration was quantified with BCA kit (Pierce, ThermoFisher Scientific, USA). […]

In assay [2] the test system is AdipoR1 and AdipoR2 in HepG2 cells. The assay is described as follows: RNA interference (AdipoR1/AdipoR2 siRNA) in PA induced HepG2: PPARα, PPARγ mRNA and protein. It is filed as cell-based, human. The following applies: PA induced HepG2, 200 μM JT003; in words. As to the method:
as §1, §2, §3

Another assay has as its system PA induced HepG2 cells. Nature of the assay: Mitochondrial content assay (MitoTracker), PA induced HepG2. The following applies: HepG2, PA + 200 μM JT003; in words. It is filed as cell-based, human. As to the method:
60–70% confluent LX2 cells and PA induced HepG2 cells were washed with PBS twice and incubated with 100 nM MitoTracker Green FM (YeSan, China) at 37 °C for 30 min For fluorescence intensity assay, cells were harvested by using trypsin/EDTA (ThermoFisher Scientific, USA) and resuspended in PBS. The excitation and emission wavelengths were 490 and 516 nm, respectively, and the intensity values corrected for total protein level (mg ml^−1). For mitochondrial visualized assay, after incubated with MitoTracker Green FM, the adherent cells were washed with PBS and a single in-focus optical section was acquired with confocal microscopy (Olympus, Japan). The nucleus was stained with Hochest33342 (ThermoFisher Scientific, USA). For every section n = 50 cells, images were analyzed and quantified by ImageJ.

Assay [3] deals with CCl4 induced liver fibrosis mice. Nature of the assay: CCl4 mice: serum ALT, AST and liver HYP. It is filed as in vivo, mouse. Particulars: Figure 5b; CCl4 + JT003 group; single animals, n = 5.

For `CCC[C@H](NC(=O)[C@@H]1CCCN1)C(=O)N[C@@H](CC(C)C)C(=O)N[C@@H](Cc1ccc(O)cc1)C(=O)N[C@@H](Cc1ccc(O)cc1)C(=O)N[C@@H](Cc1ccccc1)C(=O)N[C@@H](C)C(N)=O` [JT003] (H-P[Nva]LYYFA-NH2), the “HFD-induced insulin resistance, oral glucose tolerance test” value with HFD induced NASH mice is “obviously ameliorated”. Further, the “competitive binding to globular adiponectin, AdipoR2 overexpression cells” value at AdipoR2 is “more JT003 cause less globular adiponectin binding”. In assay [1], the “effect of AdipoR1 and AdipoR2 siRNA on PPARα level induced by JT003” value is recorded as “reduced the increase of the PPARα level induced by JT003”. For the same compound, the “effect of AdipoR1 and/or AdipoR2 siRNA on JT003 mediated PPARα and PPARγ expression” value in assay [2] was “blocked the JT003 effects on mediating PPARα and PPARγ expression”. The “mitochondrial content / biogenesis in PA induced HepG2” value in the assay on PA induced HepG2 cells was “mitochondrial biogenesis was improved”. The “alt Enzymatic Activity” value in assay [3] was 182.294 U/L and 119.931 U/L and 31.0646 U/L and 95.3544 U/L and 50.0405 U/L.
